Measured values taken from the supplement of paper PMC10307832.

Tests used:
Experiment in all cases: relative viability (nuclei count vs DMSO), 5 days (fraction); higher = more cells survive
Vismodegib + Linsitinib = compound: CS(=O)(=O)c1ccc(C(=O)Nc2ccc(Cl)c(-c3ccccn3)c2)c(Cl)c1 [Vismodegib] + C[C@]1(O)C[C@@H](c2nc(-c3ccc4ccc(-c5ccccc5)nc4c3)c3c(N)nccn32)C1 [Linsitinib] (partner 1 µM)
Summary of the method: (§1)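 Lung cancer cell lines were seeded in 1536-well plates and dosed by pin tool the next day, with either a single drug or a fixed anchor-drug dose combined with five library-drug doses (not always all listed) spaced in √10 steps. Five days later, one step fixed the cells and stained their nuclei (final 0.05% Triton X-100, 1% formaldehyde, 1 ug/ml Hoechst), and nuclei were counted on 4× images. Relative viability is the nuclei count in treated wells divided by the count in vehicle wells, and each value is the median of duplicate plates.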

Vismodegib + Palbociclib = compound: CS(=O)(=O)c1ccc(C(=O)Nc2ccc(Cl)c(-c3ccccn3)c2)c(Cl)c1 [Vismodegib] + CC(=O)c1c(C)c2cnc(Nc3ccc(N4CCNCC4)cn3)nc2n(C2CCCC2)c1=O [Palbociclib] (partner 0.5 µM)
Summary of the method: as §1

Ruxolitinib + Linsitinib = compound: N#CC[C@H](C1CCCC1)n1cc(-c2ncnc3[nH]ccc23)cn1 [Ruxolitinib] + C[C@]1(O)C[C@@H](c2nc(-c3ccc4ccc(-c5ccccc5)nc4c3)c3c(N)nccn32)C1 [Linsitinib] (partner 1 µM)
Summary of the method: as §1

Vismodegib + Vorinostat = compound: CS(=O)(=O)c1ccc(C(=O)Nc2ccc(Cl)c(-c3ccccn3)c2)c(Cl)c1 [Vismodegib] + O=C(CCCCCCC(=O)Nc1ccccc1)NO [Vorinostat] (partner 1 µM)
Summary of the method: as §1

Row | Cell Line | relative viability (Vismodegib + Linsitinib; first compound 0.08 µM) | relative viability (Vismodegib + Linsitinib; first compound 0.253 µM) | relative viability (Vismodegib + Linsitinib; first compound 0.8 µM) | relative viability (Vismodegib + Linsitinib; first compound 2.53 µM) | relative viability (Vismodegib + Linsitinib; first compound 8 µM) | relative viability (Vismodegib + Palbociclib; first compound 0.08 µM) | relative viability (Vismodegib + Palbociclib; first compound 0.253 µM) | relative viability (Vismodegib + Palbociclib; first compound 0.8 µM) | relative viability (Vismodegib + Palbociclib; first compound 2.53 µM) | relative viability (Vismodegib + Palbociclib; first compound 8 µM) | relative viability (Ruxolitinib + Linsitinib; first compound 0.08 µM) | relative viability (Ruxolitinib + Linsitinib; first compound 0.253 µM) | relative viability (Ruxolitinib + Linsitinib; first compound 0.8 µM) | relative viability (Ruxolitinib + Linsitinib; first compound 2.53 µM) | relative viability (Ruxolitinib + Linsitinib; first compound 8 µM) | relative viability (Vismodegib + Vorinostat; first compound 0.08 µM) | relative viability (Vismodegib + Vorinostat; first compound 0.253 µM) | relative viability (Vismodegib + Vorinostat; first compound 0.8 µM) | relative viability (Vismodegib + Vorinostat; first compound 2.53 µM) | relative viability (Vismodegib + Vorinostat; first compound 8 µM)
1 | LCLC-103H | 0.938 | 1.05 | 0.988 | 1.05 | 1.04 | 0.473 | 0.475 | 0.481 | 0.517 | 0.526 | 1.2 | 1.24 | 1.25 | 1.04 | 1.03 | 0.74 | 0.733 | 0.613 | 0.749 | 0.539
2 | HARA | 0.844 | 0.944 | 0.76 | 0.967 | 1.04 | 0.284 | 0.245 | 0.221 | 0.303 | 0.27 | 0.983 | 1.01 | 1.03 | 0.912 | 0.815 | 0.501 | 0.546 | 0.521 | 0.495 | 0.453
3 | RERF-LC-KJ | 0.846 | 0.922 | 0.796 | 0.823 | 0.839 | 1.03 | 1 | 1.08 | 1.02 | 1.14 | 0.883 | 0.812 | 0.877 | 0.904 | 0.634 | 0.669 | 0.603 | 0.78 | 0.772 | 0.659
4 | NCI-H2009 | 1.14 | 1.18 | 1.19 | 1.16 | 1.26 | 0.208 | 0.238 | 0.188 | 0.252 | 0.276 | 1.21 | 1.23 | 1.28 | 1.02 | 0.904 | 0.724 | 0.921 | 0.723 | 0.708 | 0.722
5 | NCI-H2126 | 0.667 | 0.711 | 0.638 | 0.762 | 0.677 | 0.329 | 0.335 | 0.342 | 0.333 | 0.328 | 0.701 | 0.725 | 0.731 | 0.744 | 0.702 | 0.704 | 0.744 | 0.695 | 0.72 | 0.663
6 | NCI-H460 | 0.732 | 0.74 | 0.773 | 0.733 | 1.08 | 0.225 | 0.125 | 0.217 | 0.156 | 0.35 | 0.801 | 0.858 | 0.929 | 0.702 | 0.462 | 0.71 | 0.707 | 0.711 | 0.691 | 0.75
7 | NCI-H1395 | 1.07 | 1.36 | 0.961 | 0.961 | 1.18 | 0.609 | 0.599 | 0.606 | 0.711 | 0.673 | – | 0.998 | 1.08 | 0.945 | 1.01 | 0.681 | 0.663 | 0.614 | 0.522 | 0.8
8 | NCI-H647 | 1.16 | 1.21 | 1.19 | 0.911 | 1.34 | 0.328 | 0.409 | 0.463 | 0.354 | 0.452 | 1.29 | 1.15 | 1.22 | 1.16 | 1.03 | 0.586 | 0.424 | 0.63 | 0.511 | 0.654
